Results on one compound are retold here after ChEMBL document CHEMBL1146390, “Cytotoxic acylated Spermidine from a soft coral, Sinularia sp” (1997).

The experiment deals with P388. Briefly: Cytotoxicity against mouse P388 cells. It counts as functional. To be noted: read-out: ED50 (the source's name).

Molecules are shown by their SMILES. In brackets after ≈: the same amount, converted by molar mass.

Regarding `CCCCCCCCCC(C)/C=C/CC(=O)NCCCN(C)CCCCN(C)C` (stereo unspecified), the EC50 worked out at 0.04 µg/mL (≈ 0.0976 µM).
